Experimental data taken from US20170224772A1, “COMPOSITION AND KIT FOR PREVENTION OR TREATMENT OF ARTHRITIS, AND METHOD USING THE SAME” (Samsung Electronics Co., Ltd., priority 2014, published 2017).
Marks after values point to notes of the source that are not given here.

Experiments:
Assay type in all cases: in vivo, mouse (DBA/1)
[1] = tested on: Mice in which rheumatoid arthritis was induced; experiment: Assessment of arthritis severity (score of edema and flare at fore and hind paws); conditions: 0-4 per leg, maximum 16; after three times of administration; in comparison with negative control group
Experimental: (§1) Chicken type II collagen (Sigma-Aldrich) was mixed with 0.05 M acetic acid at 4° C. to the concentration of 2 mg/ml. The resulting mixture and Freund's complete adjuvant (CFA) (Sigma-Aldrich) were mixed at an equal amount ratio, and then the resulting mixture was homogenized at 30000 rpm for three minutes by using a homogenizer (Polytron PT3100D) to prepare an antigen material for administration. For a first immunization, the antigen material for administration was intradermally injected to a mouse tail (DBA/1 mouse, six weeks old) (Day 1). Three weeks later, the CFA was replaced by Freund's incomplete adjuvant (IFA) (Sigma-Aldrich), and boosting was performed by the same method.
(§2) Mice were divided into five groups, and saline solution, hASCs, and CTLA4Ig-hASC were intravenously injected to mouse tails on Day 63, Day 70, Day 77, and Day 84 after immunization as shown in Table 1 below.
In the mice of Example 1-2, from Day 62 after the immunization, the severity of arthritis at the fore paw and the hind paw was assessed three times per week in a score from 0 point (No arthritis) to 4 point (Severe arthritis) according to the degree of edema and flare. The assessment was performed at each leg with the maximum possible score of 16. The clinical score was measured at each mouse by Day 90 after the immunization. […]

[2] = tested on: Mice in which rheumatoid arthritis was induced; experiment: ELISA of anti-mouse type II collagen antibody, C-telopeptide I and C-telopeptide II in serum; conditions: comparison among negative control and treatment groups
Experimental: as §1, with “method. […]” for “method.”
In the serum obtained in Example 1-2, anti-mouse type II collagen antibody, C-terminal telopeptide of Type I collagen (C-telopeptide I) that was a Type I collagen discharged during osteoclastic bone resorption, and C-terminal telopeptide of Type II collagen (C-telopeptide II) that was a chondrolysis product were detected by ELISA.
Specifically, anti-mouse type II collagen antibody, C-telopeptide I, and C-telopeptide II in the serum were measured by using an anti-mouse type II antibody collagen ELISA kit (Astarte Biologics), RatLap™ EIA kit (Immunodiagnostic Systems Ltd.), and a type II collagen ELISA kit (CUSABIO), respectively. […]

[3] = tested on: cytokine; experiment: Multiplex measurement of cytokine concentration in serum
Experimental: as §2
(§3) To verify the variation of cytokine expression according to transplantation of hASC or CTLA4Ig-hASC, the serum, knee extract, splenocytes, and lymph node cells obtained in Example 1-2 were prepared.
(§4) The cytokine concentration in serum, knee extract, and the obtained supernatant of the culture solutions of splenocytes and lymph node cells was measured by using a multiplex cytokine/chemokine kit (Milliplex MAP mouse cytokine/chemokine kit, Millipore) by following the protocol provided by the manufacturer. As cytokines, tumor necrosis factor (TNF)-αinterferon (IFN)-α, interleukin (IL)-1α, IL-1β, IL-2, IL-4, IL-6, IL-10, IL-12p70, IL-15, IL-17, keratinocyte-derived chemokine (KC), monocyte chemotactic protein (MCP)-1, macrophage inflammatory protein (MIP)-2, and regulated-upon-activation normal T-cell expressed and secreted (RANTES) were measured.
(§5) The cytokine concentration (pg/ml) in the splenocyte culture medium that was cultured in the presence of Type II collagen, ConA, an LPS is shown in Tables 4 to 6, respectively. The cytokine concentration (pg/ml) in the lymph node cell culture solution that was cultured in the presence of ConA is shown in Table 7.
(§6) The data obtained from each group was compared by performing a Kruskal Wallis test (†: P<0.05) or a (Mann-Whitney U test) (*: significant difference in comparison with the negative control group (p<0.05)).

[4] = tested on: cytokine; experiment: Multiplex measurement of cytokine concentration in knee extract
Experimental: as §2, §3, §4, §5, §6

[5] = tested on: cytokine; experiment: Cytokine concentration in splenocyte culture medium, cultured in the presence of Type II collagen; conditions: Type II collagen 100 μg/ml, 48 hours
Experimental: as §2, §3
(§7) Splenocytes of each group were separated. 2.5×10^5/well of splenocytes cultured in 96-well plate (Nunc) in a final volume of 200 μl including or not including 100 μg/ml of Type II collagen (Sigma Aldrich), 2.5 μg/ml of concanavalin A (ConA) (Sigma Aldrich), and 2.5 μg/ml of lipopolysaccharide (LPS) (Sigma Aldrich). The cells were incubated in humidified air at 37° C. for 48 hours. Then, the supernatant of the splenocyte culture medium was obtained and stored at −70° C. By the same method, lymph node cells were cultured in a culture medium including ConA, and the supernatant of lymph node cell culture solution was obtained.
as §4
as §5, with “7. […]” for “7.”

[6] = tested on: cytokine; experiment: Cytokine concentration in splenocyte culture medium, cultured in the presence of ConA; conditions: ConA 2.5 μg/ml, 48 hours
Experimental: as §2, §3, §7, §4, §5, §6

[7] = tested on: cytokine; experiment: Cytokine concentration in splenocyte culture medium, cultured in the presence of LPS; conditions: LPS 2.5 μg/ml, 48 hours
Experimental: as §2, §7, §4, §6

[8] = tested on: cytokine; experiment: Cytokine concentration in lymph node cell culture solution, cultured in the presence of ConA
Experimental: as §2, §3
Splenocytes of each group were separated. 2.5×10^5/well of splenocytes cultured in 96-well plate (Nunc) in a final volume of 200 μl including or not including 100 μg/ml of Type II collagen (Sigma Aldrich), 2.5 μg/ml of concanavalin A (ConA) (Sigma Aldrich), and 2.5 μg/ml of lipopolysaccharide (LPS) (Sigma Aldrich). […]
as §4, with “measured. […]” for “measured.”

[9] = tested on: Mice in which rheumatoid arthritis was induced; experiment: Histopathological assessment of knee cartilage (H&E, Safranin O); conditions: H&E and Safranin O, Week 13 after first immunization
Excerpt: as §2
(§8) Knee cartilage tissues were stained to investigate the degree of cartilage injury and bone injury by rheumatoid arthritis, and micro-computed tomography images were obtained to verify morphologic defects in paw joints.
In Week 13 after the first immunization, knee cartilage tissues were obtained from the animals of Example 1-2. The obtained knee cartilage tissues were fixed by using 10% (v/v) neutral buffered formalin (Sigma-Aldrich), and the resulting solution was stirred by using a rapid decalcifier (Thermo Scientific) for 24 hours to decalcify. When an osseous tissue was easily cut by a razor, it was assumed that the tissue was completely decalcified. The decalcified osseous tissue was dehydrate and embedded in paraffin. To assess histopathological injury, the paraffin-embedded tissue was cut into 4 μm-thick slices, and the paraffin was removed from the slices by using xylene. Then, the slices were rehydrated by using a graded alcohol, and stained by using hematoxylin and eosin (H&E) (DAKO) and Safranin O (IHC World). […]

[10] = tested on: Mice in which rheumatoid arthritis was induced; experiment: Micro-CT verification of morphologic defects in paw joints; conditions: score 0-4
Excerpt: as §2, §8
To verify morphological defects in paw joints, the mice paw obtained in Example 1-2 were fixed by using 4%(v/v) formalin (Sigma-Aldrich), and images of the mouse paws were obtained by using Inveon Preclinical CT (Siemens Healthcare) that is a micro-CT scanner at 40 μm of thickness, 0.6 second of exposure time, 70 keV of […] energy, and 400 μA of current. The images were reconstructed into three-dimensional images by using IRW software (Siemens Healthcare).
The data were compared among the groups by performing an ANOVA and then Tukey's multiple comparison tests. A significant difference in comparison with the negative control group was marked as “*” (p<0.05).

For `CN(Cc1cnc2nc(N)nc(N)c2n1)c1ccc(C(=O)N[C@@H](CCC(=O)O)C(=O)O)cc1` [MTX, methotrexate], the arthritis severity score [1] was “a pattern that was similar to that of the negative control group”, the “concentration of C-telopeptide I in serum” value [2] was “not significantly different” and the IL-6 concentration [3] was 161.10 ± 59.69 pg/mL. For the same compound, the MIP-2 concentration [3] was 17.36 ± 8.79* pg/ml, the TNF-α concentration [3] was 5.22 ± 1.37 pg/mL and the IL-1β concentration [4] was 4.54 ± 2.88 pg/mL. For the same compound, the IL-6 concentration [4] was 19.37 ± 11.87 pg/mL, the KC concentration [4] was 305.82 ± 147.86 pg/mL and the MIP-2 concentration [4] was 50.36 ± 19.78 pg/mL. The RANTES concentration [4] was 0.20 ± 0.07* pg/ml, the IL-10 concentration [5] was 3.75 ± 0.89 pg/mL and the IL-17 concentration [5] was 4.73 ± 2.01 pg/mL. It also gave an MCP-1 concentration [5] of 591.43 ± 222.2 pg/mL, an IL-1α concentration [6] of 21.02 ± 3.77 pg/mL and an IL-6 concentration [6] of 279.78 ± 71.12 pg/mL. It also gave an IL-10 concentration [6] of 80.76 ± 23.19 pg/mL, an IL-17 concentration [6] of 1345.14 ± 590.38 pg/mL and a KC concentration [6] of 10.78 ± 1.86 pg/mL. For the same compound, the MCP-1 concentration [6] was 549.99 ± 220.33 pg/mL, the IL-1α concentration [7] was 112.01 ± 27.82 pg/mL and the IL-4 concentration [7] was 0.37 ± 0.24 pg/mL. The IL-6 concentration [7] was 4676.79 ± 1097.10 pg/mL, the KC concentration [7] was 199.78 ± 50.25 pg/mL and the MCP-1 concentration [7] was 250.79 ± 87.01 pg/mL. For the same compound, the MIP-2 concentration [7] was 2022.27 ± 409.37 pg/mL, the RANTES concentration [7] was 128.44 ± 24.46 pg/mL and the TNF-α concentration [7] was 90.65 ± 20.41 pg/mL. The IL-10 concentration [8] was 23.11 ± 4.08 pg/mL, the “destruction of the joint cartilage” value [9] was “severely damaged” and the “mice showing a severe morphological defect in the paw joints” value [10] was “four mice out of the seven mice”.
